Data from paper PMC5648786, “Characterization of a dual function macrocyclase enables design and use of efficient macrocyclization substrates” (Nature Communications, 2017).
Numbering of substitutions follows the chain as printed. Several values for one entry are separate records, joined by “and”; a condition that tells them apart may be missing. Equal values may be shown once. Read-outs that look alike come from different tables or passages of the source. No end group written: not given here.

Tests used:
[1] = molecular target: T1, GmPOPB-S577A (inactive mutant) (Galerina marginata, UniProt H2E7Q8, S577A); settings: ITC, GmPOPB_S577A, cited from earlier work
T1 construct: His-tag (TEV-cleavable) (cleaved yes); made in house; host or cells: E. coli BL21(DE3)
T1 sequence (H2E7Q8 1-730 S577A): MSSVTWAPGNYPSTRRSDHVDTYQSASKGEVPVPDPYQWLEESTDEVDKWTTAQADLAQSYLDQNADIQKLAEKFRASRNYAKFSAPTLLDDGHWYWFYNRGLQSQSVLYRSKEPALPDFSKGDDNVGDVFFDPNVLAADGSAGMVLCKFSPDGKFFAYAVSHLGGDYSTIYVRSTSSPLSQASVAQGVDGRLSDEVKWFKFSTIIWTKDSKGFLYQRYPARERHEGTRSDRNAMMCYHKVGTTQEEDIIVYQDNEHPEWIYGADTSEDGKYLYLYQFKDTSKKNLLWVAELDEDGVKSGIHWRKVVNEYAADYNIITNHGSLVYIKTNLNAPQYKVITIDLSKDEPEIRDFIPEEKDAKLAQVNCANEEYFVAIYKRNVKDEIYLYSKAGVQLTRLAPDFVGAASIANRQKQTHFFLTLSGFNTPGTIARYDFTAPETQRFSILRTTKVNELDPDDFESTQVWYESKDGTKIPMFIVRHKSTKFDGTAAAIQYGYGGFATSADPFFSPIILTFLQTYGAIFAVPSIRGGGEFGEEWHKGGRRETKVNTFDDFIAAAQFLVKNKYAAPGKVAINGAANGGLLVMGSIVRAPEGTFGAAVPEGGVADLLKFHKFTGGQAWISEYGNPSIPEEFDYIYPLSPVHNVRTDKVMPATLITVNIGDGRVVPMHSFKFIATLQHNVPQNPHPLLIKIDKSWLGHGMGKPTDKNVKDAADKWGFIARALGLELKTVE
Excerpt: Peptide Sequence Kd (μM) ΔG ΔH -TΔS N (kcal mol-1) (kcal mol-1) (kcal mol-1) measurements 9mer IW GIGCNPW ND ND ND ND 10mer IW GIGCNPW T 83 ± 17 -5.5 ± 0.1 -3.1 ± 0.5 -2.4 ± 0.3 2 11mer IW GIGCNPW TA 39 ± 18 -5.9 ± 0.3 -1.5 ± 0.7 […] 2 12mer IW GIGCNPW TAE 21 ± 5 -6.3 ± 0.1 -1.0 ± 0.3 -5.3 ± 0.4 2 13mer IW GIGCNPW TAEH 2.4 ± 0.1 -7.3 ± 0.1 -0.6 ± 0.2 -6.9 ± 0.2 2 14mer IW GIGCNPW TAEHV 9.5 ± 1.1 -6.7 ± 0.1 -0.9 ± 0.2 -5.8 ± 0.2 2 9mer- […] 121 ± 19 -5.3 ± 0.1 -6.4 ± 1.6 2.6 ± 1.5 3 recognition sequence 12mer- ...

[2] = molecular target: T1, GmPOPB-S577A (inactive mutant); assay: Isothermal titration calorimetry, peptide binding to inactive mutant GmPOPB_S577A; settings: for -TΔS / ΔG / ΔH / Kd / Binding detected by ITC: ITC; for -TΔS / ΔG / ΔH / Kd: 20 °C; for -TΔS / ΔG / ΔH: average ± SEM; for Kd: peptide titrated into GmPOPB_S577A, 50 mM Tris pH 8.0, 50 mM NaCl, 10 mM DTT, single-site model, n fixed at 1.0, average ± SEM of at least 2 measurements; for Binding detected by ITC: peptide concentrations up to 1 mM
[3] = Peptide solubility when preparing ITC ligand solutions; type: physicochemical; settings: peptide ligand solution for ITC
Experimental: Supplementary Table 3 Thermodynamic parameters obtained by ITC.
Peptide Sequence Kd (μM) ΔG ΔH -TΔS N
(kcal mol-1) (kcal mol-1) (kcal mol-1) measurements
9mer IW GIGCNPW ND ND ND ND
ND – peptide solubility was lower than 300 μM and measurements could not be
Errors reported are standard error of the mean using the replicates indicated in the
table and the fitted values using Malvern data analysis software.

[4] = system: CC[C@H](C)[C@H](N)C(=O)N[C@@H](Cc1c[nH]c2ccccc12)C(=O)NCC(=O)N[C@H](C(=O)NCC(=O)N[C@@H](CS)C(=O)N[C@@H](CC(N)=O)C(=O)N1CCC[C@H]1C(=O)N[C@@H](Cc1c[nH]c2ccccc12)C(=O)N[C@H](C(=O)N[C@@H](C)C(=O)N[C@@H](CCC(=O)O)C(=O)N[C@@H](Cc1c[nH]cn1)C(=O)O)[C@@H](C)O)[C@@H](C)CC; assay: purified protein, by the assay type; settings: pH 8.0
Experimental: (§1) Comparison between distinct substrates was performed in 50 mM Tris pH 8.0, 50 mM NaCl, 10 mM DTT with varying concentrations of substrates at room temperature. All reactions were performed in duplicates. Reactions were started by adding GmPOPB (50 nM for GmAMA1_C6S, 1 μM for the 13mer and 14mer, and 20 nM for other substrates) to the assay mixture containing buffer and peptide. Reactions were quenched at several time points by adding 50 μL reaction mixture to 20 μL 6% TFA. Reactants were separated from products for quantification by injecting 50 μL of each quenched time point mix onto a ZORBAX SB-C18, 5 µm, 9.4 × 50 mm (Agilent) column connected to an Agilent LC-MS (G6130B Single Quad, Agilent Technologies). Reactants were separated from products using a gradient from H2O containing 0.1% TFA or 0.1% formic acid and 5% acetonitrile to 50% acetonitrile, at 1.5 ml/min for 8 min. […] The sum of product+substrate was assumed equal to the total initial amount of substrate, product converted from % to concentration. This value was divided by concentration of enzyme present to yield v/E t (min^−1). […] For progress curves with the 35mer substrate, measurements were triplicate and quantification relied on ion counts from mass spectrometry. […] Authentic cyclic peptide was quantified by UV absorbance. […] Kinetic data were fitted to a Michaelis–Menten equation using GraphPad Prism, and values reported are average and standard error of the mean.

[5] = system: CC[C@H](C)[C@H](NC(=O)CNC(=O)[C@H](Cc1c[nH]c2ccccc12)NC(=O)[C@@H](NC(=O)[C@@H]1CCCN1C(=O)[C@H](CC(C)C)NC(=O)[C@H](CCCNC(=N)N)NC(=O)[C@@H](NC(=O)[C@H](C)NC(=O)[C@H](CC(N)=O)NC(=O)[C@@H](NC(=O)[C@H](CC(=O)O)NC(=O)[C@H](Cc1ccccc1)NC(=O)[C@@H](N)CCSC)[C@@H](C)O)[C@@H](C)O)[C@@H](C)CC)C(=O)NCC(=O)N[C@@H](CS)C(=O)N[C@@H](CC(N)=O)C(=O)N1CCC[C@H]1C(=O)N[C@@H](Cc1c[nH]c2ccccc12)C(=O)N[C@H](C(=O)N[C@@H](C)C(=O)N[C@@H](CCC(=O)O)C(=O)N[C@@H](Cc1c[nH]cn1)C(=O)N[C@H](C(=O)N[C@@H](CC(=O)O)C(=O)N[C@@H](CCC(N)=O)C(=O)N[C@H](C(=O)N[C@@H](CC(C)C)C(=O)N[C@@H](C)C(=O)N[C@@H](CO)C(=O)NCC(=O)N[C@@H](CC(N)=O)C(=O)N[C@@H](CC(=O)O)C(=O)N[C@H](C(=O)N[C@@H](CS)C(=O)O)[C@@H](C)CC)[C@@H](C)O)C(C)C)[C@@H](C)O; assay: purified protein, by the assay type; settings: pH 8.0
Experimental: as §1

[6] = system: CC[C@H](C)[C@H](N)C(=O)N[C@@H](Cc1c[nH]c2ccccc12)C(=O)NCC(=O)N[C@H](C(=O)NCC(=O)N[C@@H](CS)C(=O)N[C@@H](CC(N)=O)C(=O)N1CCC[C@H]1C(=O)N[C@@H](Cc1c[nH]c2ccccc12)C(=O)N[C@H](C(=O)N[C@@H](C)C(=O)N[C@@H](CCC(=O)O)C(=O)N[C@@H](Cc1c[nH]cn1)C(=O)N[C@H](C(=O)O)C(C)C)[C@@H](C)O)[C@@H](C)CC; assay: purified protein, by the assay type; settings: pH 8.0
Experimental: as §1

GmPOPB-H698A = molecular target: T2, GmPOPB-H698A (Galerina marginata, UniProt H2E7Q8 1-730, H698A); assay: crystal structure; co-crystallization of 100 mg/ml protein with two-fold molar excess of peptide, sitting drop, 20 °C, 12.5 mM hexammine cobalt chloride as additive; settings: both partners purified
T2 sequence: T1 sequence (H2E7Q8 1-730 S577A) with A577S, H698A

GmPOPB-S577A = molecular target: T3, GmPOPB-S577A (Galerina marginata, UniProt H2E7Q8, S577A); assay: ITC; settings: both partners purified
T3 sequence: T1 sequence (H2E7Q8 1-730 S577A)

[7] = average ± SEM, previously published ref 21

In the case of “WTAEHVDQTLASGNDIC [17mer-recognition sequence]”, the Kd ([1]; 20 °C, 50 mM Tris pH 8.0, 50 mM NaCl, 10 mM DTT, average ± SEM, previously published ref 21) is listed as 430 ± 10 nM, the “-TΔS” value [1, 7] is listed as 1.7 ± 0.4 kcal/mol and the ΔG [1, 7] is listed as -8.5 ± 0.1 kcal/mol. The ΔH [1, 7] was -10.2 ± 0.4 kcal/mol, the “Difference in ΔG between the 17mer recognition sequence and the 25mer peptide” value [1] was 1.34 kcal/mol and the Kd ([1]; previously published ref 21) was 430 ± 10 nM.

In the case of IWGIGCNPWTAE [12mer], the “-TΔS” value ([2]; GmPOPB_S577A) is reported as -5.3 ± 0.4 kcal/mol, the ΔG ([2]; GmPOPB_S577A) is reported as -6.3 ± 0.1 kcal/mol and the ΔH ([2]; GmPOPB_S577A) is reported as -1.0 ± 0.3 kcal/mol. The Kd [2] was 21 ± 5 µM.

In the case of MFDTNATRLP [leader peptide], the “Binding detected by ITC” value ([2]; GmPOPB_S577A) is reported as “no detectable binding” and the “Binding detected by ITC” value ([2]; GmPOPB_S577A, listed as 10-residue leader) is reported as “does not bind”.

For TLASGNDIC [9mer-recognition sequence], the “-TΔS” value ([2]; GmPOPB_S577A) was 2.6 ± 1.5 kcal/mol, the ΔG ([2]; GmPOPB_S577A) was -5.3 ± 0.1 kcal/mol and the ΔH ([2]; GmPOPB_S577A) was -6.4 ± 1.6 kcal/mol.

With “VDQTLASGNDIC [12mer-recognition sequence]” the “-TΔS” value ([2]; GmPOPB_S577A) was 16.3 ± 3.0 kcal/mol, the ΔG ([2]; GmPOPB_S577A) was -7.1 ± 0.1 kcal/mol and the ΔH ([2]; GmPOPB_S577A) was -23.5 ± 3.1 kcal/mol.

With IWGIGCNPW [9mer] the solubility ([3]; aqueous buffer, Tris pH 8.0 buffer with DTT) was less than 300 µM and the “Peptide solubility” value [3] was “not sufficiently soluble for analysis”.

For GmPOPB (Galerina marginata CBS 339.88), the Km [4] was 24.4 ± 5.2 µM and 25 µM, the kcat [4] was 0.49 ± 0.03 min⁻¹ and 0.49 min⁻¹ and the kcat/Km [4] was 0.020 ± 0.004 µM⁻¹ min⁻¹. It also gave a Km [5] of 23 ± 11 µM, a kcat [5] of 3.2 ± 0.4 min⁻¹ and a kcat/Km [5] of 0.14 ± 0.07 µM⁻¹ min⁻¹. The Km [6] was 380 µM, the kcat [6] was 0.58 min⁻¹ and the kcat/Km [6] was 0.0010 ± 0.0001 µM⁻¹ min⁻¹.

With IWGIGCNPWT [10mer] the “-TΔS” value ([2]; GmPOPB_S577A) was -2.4 ± 0.3 kcal/mol, the ΔG ([2]; GmPOPB_S577A) was -5.5 ± 0.1 kcal/mol and the ΔH ([2]; GmPOPB_S577A) was -3.1 ± 0.5 kcal/mol. For the same molecule, the Kd [2] was 83 ± 17 µM.

For CC[C@H](C)[C@H](NC(=O)CNC(=O)[C@H](Cc1c[nH]c2ccccc12)NC(=O)[C@@H](NC(=O)[C@@H]1CCCN1C(=O)[C@H](CC(C)C)NC(=O)[C@H](CCCNC(=N)N)NC(=O)[C@@H](NC(=O)[C@H](C)NC(=O)[C@H](CC(N)=O)NC(=O)[C@@H](NC(=O)[C@H](CC(=O)O)NC(=O)[C@H](Cc1ccccc1)NC(=O)[C@@H](N)CCSC)[C@@H](C)O)[C@@H](C)O)[C@@H](C)CC)C(=O)NCC(=O)N[C@@H](CS)C(=O)N[C@@H](CC(N)=O)C(=O)N1CCC[C@H]1C(=O)N[C@@H](Cc1c[nH]c2ccccc12)C(=O)N[C@H](C(=O)N[C@@H](C)C(=O)N[C@@H](CCC(=O)O)C(=O)N[C@@H](Cc1c[nH]cn1)C(=O)N[C@H](C(=O)N[C@@H](CC(=O)O)C(=O)N[C@@H](CCC(N)=O)C(=O)N[C@H](C(=O)N[C@@H](CC(C)C)C(=O)N[C@@H](C)C(=O)N[C@@H](CO)C(=O)NCC(=O)N[C@@H](CC(N)=O)C(=O)N[C@@H](CC(=O)O)C(=O)N[C@H](C(=O)N[C@@H](CS)C(=O)O)[C@@H](C)CC)[C@@H](C)O)C(C)C)[C@@H](C)O [35mer], the “-TΔS” value ([2]; GmPOPB_S577A) was -1.2 ± 0.4 kcal/mol and the ΔG ([2]; GmPOPB_S577A) was -9.3 ± 0.1 kcal/mol.

For IWGIGCNPWTA [11mer], the ΔG ([2]; GmPOPB_S577A) was -5.9 ± 0.3 kcal/mol, the ΔH ([2]; GmPOPB_S577A) was -1.5 ± 0.7 kcal/mol and the Kd [2] was 39 ± 18 µM.

In the case of IWGIGCNPWTAEH [13mer], the “-TΔS” value ([2]; GmPOPB_S577A) is reported as -6.9 ± 0.2 kcal/mol, the ΔG ([2]; GmPOPB_S577A) is reported as -7.3 ± 0.1 kcal/mol and the ΔH ([2]; GmPOPB_S577A) is reported as -0.6 ± 0.2 kcal/mol. The Kd [2] was 2.4 ± 0.1 µM and the “Difference in affinity (reduction in binding) between the 35mer and the 13mer” value ([2]; ratio of ITC Kd values, GmPOPB_S577A) was ~ 20 fold.

In the case of MFDTNATRLPIWGIGCNPWTAEHVDQTLASGNDIC (also called 35mer peptide) [35mer substrate (amatoxin peptide precursor, full-length substrate)], the binding result (GmPOPB-H698A) is reported as “binds” and the Kd (GmPOPB-S577A) is reported as 0.12 µM.

VDQTLASGNDIC [truncated recognition sequence VDQTLASGNDIC (12 residues)] gave a Kd (GmPOPB-S577A) of 5 µM.

TLASGNDIC [truncated recognition sequence TLASGNDIC (9 residues)] showed a Kd (GmPOPB-S577A) of 121 µM.
